Organism: Rattus norvegicus
Assay: Open TG-GATES - Regimen: Daily Repeat
Type: toxicity, organism-based, Sprague-Dawley
Parameters: regimen Daily Repeat, gender Male, age 6 weeks
Conditions: in vivo, po, route gavage; for APTT / Bas / Eos / Fbg / Hb / Ht / Lym / MCH / MCHC / MCV / Mono / Neu / PT / Plat / RBC / Ret / WBC: tissue Blood; for KIDNEY_L / KIDNEY_R / KIDNEY_TOTAL: tissue Kidney; for LIVER: tissue Liver; for A/G / ALP / ALT / AST / BUN / CRE / Ca / Cl / DBIL / GLC / IP / K / LDH / Na / PL / RALB / TBIL / TC / TG / TP / gamma-GTP: tissue Plasma
[1] = 120 mg/kg, 72 h, dose level Middle, time 3 day
[2] = 120 mg/kg, […], dose level Middle, time 7 day
[3] = 120 mg/kg, […], dose level Middle, time 14 day
[4] = 120 mg/kg, […], dose level Middle, time 28 day
[5] = 400 mg/kg, 72 h, dose level High, time 3 day
[6] = 400 mg/kg, […], dose level High, time 7 day
[7] = 400 mg/kg, […], dose level High, time 14 day
[8] = 400 mg/kg, […], dose level High, time 28 day

Cc1cccc(C)c1OCC(C)N (centres undefined) [MEXILETINE]
TERMINAL_BW [1]: 236.3 g
APTT [1]: 21.8 s
Bas [1]: 0%
Eos [1]: 0.8%
Fbg [1]: 325.2 mg/dL
Hb [1]: 12.9 g/dL
Ht [1]: 40.1%
Lym [1]: 74%
MCH [1]: 19.7 pg
MCHC [1]: 32.3%
MCV [1]: 61.1 fL
Mono [1]: 2.6%
Neu [1]: 21.6%
PT [1]: 15.3 s
Plat [1]: 115.5 x10_4/uL
RBC [1]: 656.6 x10_4/ul
Ret [1]: 6.1%
WBC [1]: 96.8 x10_2/uL
KIDNEY_L [1]: 1 g
KIDNEY_R [1]: 1 g
KIDNEY_TOTAL [1]: 2 g
LIVER [1]: 11.5 g
A/G [1]: 1.3
ALP [1]: 1686.2 IU/L
ALT [1]: 48.6 IU/L
AST [1]: 73.4 IU/L
BUN [1]: 16.6 mg/dL
CRE [1]: 0.1 mg/dL
Ca [1]: 10.8 mg/dL
Cl [1]: 106.2 meq/L
DBIL [1]: 0 mg/dL
GLC [1]: 197 mg/dL
IP [1]: 8 mg/dL
K [1]: 4.3 meq/L
LDH [1]: 181.2 IU/L
Na [1]: 141.6 meq/L
PL [1]: 168 mg/dL
RALB [1]: 3.2 g/dL
TBIL [1]: 0.002 mg/dL
TC [1]: 91.2 mg/dL
TG [1]: 150.2 mg/dL
TP [1]: 5.7 g/dL
gamma-GTP [1]: 1.8 IU/L
TERMINAL_BW [2]: 275.9 g
TERMINAL_BW [3]: 328.1 g
TERMINAL_BW [4]: 389.9 g
APTT [2]: 22.2 s
Bas [2]: 0%
Eos [2]: 0.8%
Fbg [2]: 321.2 mg/dL
Hb [2]: 13.1 g/dL
Ht [2]: 40.4%
Lym [2]: 77.8%
MCH [2]: 20.5 pg
MCHC [2]: 32.4%
MCV [2]: 63.3 fL
Mono [2]: 2.4%
Neu [2]: 18.4%
PT [2]: 15.6 s
Plat [2]: 105.3 x10_4/uL
RBC [2]: 638 x10_4/ul
Ret [2]: 6.2%
WBC [2]: 107.1 x10_2/uL
APTT [3]: 21.8 s
Bas [3]: 0%
Eos [3]: 0.4%
Fbg [3]: 310.2 mg/dL
Hb [3]: 13.1 g/dL
Ht [3]: 40.6%
Lym [3]: 83.2%
MCH [3]: 20.1 pg
MCHC [3]: 32.2%
MCV [3]: 62.6 fL
Mono [3]: 2%
Neu [3]: 13.6%
PT [3]: 15.9 s
Plat [3]: 113.4 x10_4/uL
RBC [3]: 648.8 x10_4/ul
Ret [3]: 7.3%
WBC [3]: 96 x10_2/uL
APTT [4]: 23.8 s
Bas [4]: 0%
Eos [4]: 1.8%
Fbg [4]: 328.2 mg/dL
Hb [4]: 15.1 g/dL
Ht [4]: 44%
Lym [4]: 74%
MCH [4]: 19.4 pg
MCHC [4]: 34.4%
MCV [4]: 56.6 fL
Mono [4]: 2.4%
Neu [4]: 21.2%
PT [4]: 15.6 s
Plat [4]: 94.2 x10_4/uL
RBC [4]: 777 x10_4/ul
Ret [4]: 3.1%
WBC [4]: 93 x10_2/uL
KIDNEY_L [2]: 1.1 g
KIDNEY_R [2]: 1.1 g
KIDNEY_TOTAL [2]: 2.2 g
KIDNEY_L [3]: 1.3 g
KIDNEY_R [3]: 1.3 g
KIDNEY_TOTAL [3]: 2.6 g
KIDNEY_L [4]: 1.5 g
KIDNEY_R [4]: 1.5 g
KIDNEY_TOTAL [4]: 2.9 g
LIVER [2]: 13.2 g
LIVER [3]: 14.8 g
LIVER [4]: 16.8 g
A/G [2]: 1.2
ALP [2]: 1567.6 IU/L
ALT [2]: 45 IU/L
AST [2]: 69.8 IU/L
BUN [2]: 18.4 mg/dL
CRE [2]: 0.1 mg/dL
Ca [2]: 11 mg/dL
Cl [2]: 104.8 meq/L
DBIL [2]: 0 mg/dL
GLC [2]: 188.6 mg/dL
IP [2]: 7.8 mg/dL
K [2]: 4.2 meq/L
LDH [2]: 145.6 IU/L
Na [2]: 142 meq/L
PL [2]: 163.2 mg/dL
RALB [2]: 3 g/dL
TBIL [2]: 0.004 mg/dL
TC [2]: 81.2 mg/dL
TG [2]: 148 mg/dL
TP [2]: 5.6 g/dL
gamma-GTP [2]: 1.6 IU/L
A/G [3]: 1.1
ALP [3]: 1443.2 IU/L
ALT [3]: 43.2 IU/L
AST [3]: 74.6 IU/L
BUN [3]: 19.4 mg/dL
CRE [3]: 0.2 mg/dL
Ca [3]: 10.5 mg/dL
Cl [3]: 107.2 meq/L
DBIL [3]: 0 mg/dL
GLC [3]: 190.6 mg/dL
IP [3]: 6.5 mg/dL
K [3]: 4.4 meq/L
LDH [3]: 157.8 IU/L
Na [3]: 140.6 meq/L
PL [3]: 160 mg/dL
RALB [3]: 2.9 g/dL
TBIL [3]: 0.002 mg/dL
TC [3]: 80.8 mg/dL
TG [3]: 155.6 mg/dL
TP [3]: 5.7 g/dL
gamma-GTP [3]: 2.2 IU/L
A/G [4]: 1
ALP [4]: 977 IU/L
ALT [4]: 42.4 IU/L
AST [4]: 68.8 IU/L
BUN [4]: 16.2 mg/dL
CRE [4]: 0.2 mg/dL
Ca [4]: 10.4 mg/dL
Cl [4]: 105.6 meq/L
DBIL [4]: 0 mg/dL
GLC [4]: 201.6 mg/dL
IP [4]: 6 mg/dL
K [4]: 3.7 meq/L
LDH [4]: 158.2 IU/L
Na [4]: 142.8 meq/L
PL [4]: 157.8 mg/dL
RALB [4]: 3.1 g/dL
TBIL [4]: 0.012 mg/dL
TC [4]: 80.2 mg/dL
TG [4]: 145.2 mg/dL
TP [4]: 6.1 g/dL
gamma-GTP [4]: 2 IU/L
TERMINAL_BW [5]: 229.5 g
APTT [5]: 21.1 s
Bas [5]: 0%
Eos [5]: 1%
Fbg [5]: 337.4 mg/dL
Hb [5]: 13.2 g/dL
Ht [5]: 40.8%
Lym [5]: 76.6%
MCH [5]: 19.9 pg
MCHC [5]: 32.5%
MCV [5]: 61.3 fL
Mono [5]: 2.2%
Neu [5]: 19.6%
PT [5]: 15.8 s
Plat [5]: 111.4 x10_4/uL
RBC [5]: 666.8 x10_4/ul
Ret [5]: 5.4%
WBC [5]: 88.4 x10_2/uL
KIDNEY_L [5]: 1 g
KIDNEY_R [5]: 1.1 g
KIDNEY_TOTAL [5]: 2.1 g
LIVER [5]: 10.3 g
A/G [5]: 1.3
ALP [5]: 1772.8 IU/L
ALT [5]: 54 IU/L
AST [5]: 75.6 IU/L
BUN [5]: 13.8 mg/dL
CRE [5]: 0.1 mg/dL
Ca [5]: 10.5 mg/dL
Cl [5]: 106.2 meq/L
DBIL [5]: 0 mg/dL
GLC [5]: 191.4 mg/dL
IP [5]: 7.4 mg/dL
K [5]: 4 meq/L
LDH [5]: 170 IU/L
Na [5]: 142.2 meq/L
PL [5]: 155.6 mg/dL
RALB [5]: 3.2 g/dL
TBIL [5]: 0.008 mg/dL
TC [5]: 86 mg/dL
TG [5]: 87.4 mg/dL
TP [5]: 5.6 g/dL
gamma-GTP [5]: 1.4 IU/L
TERMINAL_BW [6]: 249.3 g
TERMINAL_BW [7]: 299.7 g
TERMINAL_BW [8]: 372.4 g
APTT [6]: 22.2 s
Bas [6]: 0%
Eos [6]: 0.4%
Fbg [6]: 343.8 mg/dL
Hb [6]: 13.8 g/dL
Ht [6]: 41.9%
Lym [6]: 79%
MCH [6]: 20.1 pg
MCHC [6]: 32.9%
MCV [6]: 61 fL
Mono [6]: 2%
Neu [6]: 17%
PT [6]: 16.4 s
Plat [6]: 111.8 x10_4/uL
RBC [6]: 687.2 x10_4/ul
Ret [6]: 4%
WBC [6]: 107.9 x10_2/uL
APTT [7]: 21.7 s
Bas [7]: 0%
Eos [7]: 1%
Fbg [7]: 292.2 mg/dL
Hb [7]: 12.9 g/dL
Ht [7]: 39.9%
Lym [7]: 75.8%
MCH [7]: 20.5 pg
MCHC [7]: 32.4%
MCV [7]: 63.2 fL
Mono [7]: 2.4%
Neu [7]: 20.6%
PT [7]: 16.5 s
Plat [7]: 108.6 x10_4/uL
RBC [7]: 632.4 x10_4/ul
Ret [7]: 7.4%
WBC [7]: 62.3 x10_2/uL
APTT [8]: 23.2 s
Bas [8]: 0%
Eos [8]: 1%
Fbg [8]: 334.4 mg/dL
Hb [8]: 15.5 g/dL
Ht [8]: 45.2%
Lym [8]: 76%
MCH [8]: 19.1 pg
MCHC [8]: 34.3%
MCV [8]: 55.6 fL
Mono [8]: 2.4%
Neu [8]: 19.4%
PT [8]: 16.1 s
Plat [8]: 101.2 x10_4/uL
RBC [8]: 813.6 x10_4/ul
Ret [8]: 2.4%
WBC [8]: 104.8 x10_2/uL
KIDNEY_L [6]: 1.1 g
KIDNEY_R [6]: 1.1 g
KIDNEY_TOTAL [6]: 2.3 g
KIDNEY_L [7]: 1.3 g
KIDNEY_R [7]: 1.3 g
KIDNEY_TOTAL [7]: 2.6 g
KIDNEY_L [8]: 1.5 g
KIDNEY_R [8]: 1.5 g
KIDNEY_TOTAL [8]: 3 g
LIVER [6]: 11.5 g
LIVER [7]: 13.9 g
LIVER [8]: 16.7 g
A/G [6]: 1.2
ALP [6]: 1505.6 IU/L
ALT [6]: 50.2 IU/L
AST [6]: 76 IU/L
BUN [6]: 18 mg/dL
CRE [6]: 0.2 mg/dL
Ca [6]: 10.9 mg/dL
Cl [6]: 104.6 meq/L
DBIL [6]: 0 mg/dL
GLC [6]: 180.6 mg/dL
IP [6]: 7.2 mg/dL
K [6]: 4.2 meq/L
LDH [6]: 130.4 IU/L
Na [6]: 143 meq/L
PL [6]: 168.4 mg/dL
RALB [6]: 3.1 g/dL
TBIL [6]: 0.004 mg/dL
TC [6]: 85.6 mg/dL
TG [6]: 138.2 mg/dL
TP [6]: 5.7 g/dL
gamma-GTP [6]: 1.2 IU/L
A/G [7]: 1.1
ALP [7]: 1631.8 IU/L
ALT [7]: 70.2 IU/L
AST [7]: 97.6 IU/L
BUN [7]: 19.4 mg/dL
CRE [7]: 0.2 mg/dL
Ca [7]: 10.4 mg/dL
Cl [7]: 105.8 meq/L
DBIL [7]: 0 mg/dL
GLC [7]: 185 mg/dL
IP [7]: 7.1 mg/dL
K [7]: 4.4 meq/L
LDH [7]: 185.4 IU/L
Na [7]: 141 meq/L
PL [7]: 182.6 mg/dL
RALB [7]: 3.1 g/dL
TBIL [7]: 0 mg/dL
TC [7]: 88 mg/dL
TG [7]: 186.8 mg/dL
TP [7]: 5.9 g/dL
gamma-GTP [7]: 2.2 IU/L
A/G [8]: 1.1
ALP [8]: 1359 IU/L
ALT [8]: 43.6 IU/L
AST [8]: 70 IU/L
BUN [8]: 18.2 mg/dL
CRE [8]: 0.2 mg/dL
Ca [8]: 10.5 mg/dL
Cl [8]: 104.2 meq/L
DBIL [8]: 0 mg/dL
GLC [8]: 183.8 mg/dL
IP [8]: 6.6 mg/dL
K [8]: 4.3 meq/L
LDH [8]: 144.6 IU/L
Na [8]: 142.2 meq/L
PL [8]: 180.4 mg/dL
RALB [8]: 3.1 g/dL
TBIL [8]: 0.01 mg/dL
TC [8]: 91.4 mg/dL
TG [8]: 162.6 mg/dL
TP [8]: 6.1 g/dL
gamma-GTP [8]: 1.8 IU/L

From ChEMBL document CHEMBL3885861, “Open TG-GATES”
